In patent US20180369211A1, “METHODS AND COMPOSITIONS FOR TREATING NEURODEGENERATIVE DISORDERS” (Lysosomal Therapeutics Inc., priority 2016, published 2018):

Biological target: T1, acid ceramidase (Homo sapiens, UniProt Q13510)
T1 construct: host or cells: unnamed cells; lysate 'enriched with acid ceramidase'
T1 sequence (Q13510 22-395): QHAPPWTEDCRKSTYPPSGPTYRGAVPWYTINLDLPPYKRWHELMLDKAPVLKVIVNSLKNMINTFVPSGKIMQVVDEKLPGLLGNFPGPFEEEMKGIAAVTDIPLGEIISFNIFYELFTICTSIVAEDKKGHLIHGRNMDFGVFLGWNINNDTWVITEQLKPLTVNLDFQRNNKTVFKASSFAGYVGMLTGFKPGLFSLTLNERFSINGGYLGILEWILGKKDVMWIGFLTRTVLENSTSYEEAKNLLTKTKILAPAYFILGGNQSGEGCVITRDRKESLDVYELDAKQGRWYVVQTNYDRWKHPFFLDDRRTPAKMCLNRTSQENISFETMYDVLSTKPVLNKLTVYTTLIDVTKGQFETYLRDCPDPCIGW
Assay: acid ceramidase fluorescent intensity assay with fluorogenic substrate Rbm 14-12
Type: biochemical
Conditions: cell lysates enriched with acid ceramidase, 1 hour pre-incubation, pH 4.5, substrate Rbm 14-12 at 6.3 μM, room temperature, 1 or two hours; read-out: average IC50 value for the 1 and 2 hour time points
Experimental: Inhibition of acid ceramidase activity by compound 25 of Table 1 was evaluated in a fluorescent intensity assay using a fluorogenic substrate Rbm 14-12 […]. Compound 25 was incubated with cell lysates enriched with acid ceramidase for 1 hour in an assay buffer containing 50 mM NaOAc and 100 mM NaCl at pH 4.5. The reaction was initiated by the addition of the substrate at a final concentration of 6.3 μM and the mixture was incubated at room temperature for 1 or two hours. At the appropriate time, the reaction was quenched by the addition of methanol and treated with NaIO4 (fresh 2.5 mg/ml solution was made in 100 mM glycine/NaOH buffer, pH 10.6), followed by incubation for 1 hour at room temperature. Fluorescent intensity was measured using a plate reader at ex 355 nm and em 460 nm.

`O=C(NCCCCc1ccccc1)n1c(=O)oc2cc(-c3ccc(F)cc3)ccc21` [compound 25, 6-(4-fluorophenyl)-2-oxo-N-(4-phenylbutyl)-1,3-benzoxazole-3-carboxamide] showed an IC50 of 250 to 500 nM.
